Results on 15 compounds are retold here after PubChem BioAssay (NCI).

Molecules are shown by their SMILES.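 How tested: cells in 96-well plates exposed to compound for 48 hours at five concentrations. TGI is the concentration that stops growth completely.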

Some test systems named below: CCRF-CEM leukemia; M14 melanoma; MDA-MB-231 breast; NCI-H23 lung; MCF7 breast; IGROV1 ovarian; HS 578T breast; UACC-257 melanoma; OVCAR-5 ovarian; A498 renal.
Test in all cases: NCI tumour cell line growth inhibition, 48 h

With `O=c1oc2ccc(Cl)cc2cc1-c1cn2ccsc2n1`, the TGI in the test with CCRF-CEM leukemia was 78.3 µM; with M14 melanoma, > 100 µM; with MDA-MB-231 breast, > 100 µM; with NCI-H23 lung, > 100 µM; in the test on MCF7 breast, 65.4 µM; with IGROV1 ovarian it was > 100 µM. Besides, the TGI with HS 578T breast and in the test on UACC-257 melanoma was > 100 µM in each case.

With `COc1ccc(C=Nc2ccc(-c3nc4ccccc4[nH]3)cc2)cc1OC`, the TGI in the test on CCRF-CEM leukemia, in the test on M14 melanoma, with OVCAR-5 ovarian, in the test on MDA-MB-231 breast, in the test with NCI-H23 lung and in the test with MCF7 breast was > 100 µM throughout. Besides, the TGI in the test with IGROV1 ovarian, with HS 578T breast, with A498 renal and in the test on UACC-257 melanoma was > 100 µM each time.

Regarding `O=CNNC(=O)Nc1ccc(Cl)cc1`, the TGI with CCRF-CEM leukemia, in the test on M14 melanoma, with OVCAR-5 ovarian, in the test with MDA-MB-231 breast, in the test on NCI-H23 lung and with MCF7 breast was > 100 µM each time. In addition, the TGI with IGROV1 ovarian was > 100 µM; in the test on HS 578T breast, > 100 µM; in the test with A498 renal, 97.6 µM; in the test with UACC-257 melanoma it was > 100 µM.

As for `CC/C(Cl)=N\OC(=O)Nc1ccc(F)cc1F`, the TGI in the test on CCRF-CEM leukemia stood at 5.11 µM; with M14 melanoma, 22.3 µM; in the test on OVCAR-5 ovarian, 35.1 µM; in the test with MDA-MB-231 breast, 36.7 µM; with NCI-H23 lung, 46.5 µM; in the test on MCF7 breast, 44.9 µM. For the same compound, the TGI was 31.9 µM in the test on IGROV1 ovarian, > 69.5 µM in the test with HS 578T breast, 74.8 µM in the test with A498 renal and 34.2 µM with UACC-257 melanoma.

As for `Cc1cn([C@H]2[C@@H](CO)C[C@H]2O)c(=O)[nH]c1=O`, the TGI in the test with CCRF-CEM leukemia, with OVCAR-5 ovarian, with MDA-MB-231 breast, in the test on NCI-H23 lung, in the test with MCF7 breast and in the test on IGROV1 ovarian was > 100 µM in each case. In addition, the TGI with HS 578T breast, in the test on A498 renal and in the test on UACC-257 melanoma was > 100 µM in each case.

On to `Cc1ccc(S(=O)(=O)N/N=C2\C3CC4CC(C3)C2C4)cc1` (stereo unspecified), for which the TGI in the test on CCRF-CEM leukemia, in the test on M14 melanoma, in the test with OVCAR-5 ovarian, with MDA-MB-231 breast, with NCI-H23 lung and in the test with MCF7 breast was > 100 µM in each case. Also, the TGI in the test with IGROV1 ovarian, in the test with HS 578T breast and in the test with UACC-257 melanoma was > 100 µM throughout.

With `Cc1cc(S(=O)(=O)O)c(NC(=O)c2oc3cc(O)ccc3c(=O)c2C)cc1Cl`, the TGI with M14 melanoma, in the test with OVCAR-5 ovarian, with MDA-MB-231 breast, in the test with NCI-H23 lung, with MCF7 breast and in the test on IGROV1 ovarian was > 100 µM throughout. For the same compound, the TGI with HS 578T breast and with UACC-257 melanoma was > 100 µM throughout.

For the compound `CCOC(=O)CCCn1cc(C(=O)OC)nn1`, the TGI with CCRF-CEM leukemia, in the test with MDA-MB-231 breast, in the test with NCI-H23 lung, in the test on MCF7 breast, in the test with IGROV1 ovarian and in the test with HS 578T breast was > 100 µM throughout. Further, the TGI in the test on UACC-257 melanoma is > 100 µM.

Turning to `CNc1ccc(S(=O)Nc2ccccc2)cc1` (stereo unspecified), the TGI with CCRF-CEM leukemia, in the test with OVCAR-5 ovarian, in the test with MDA-MB-231 breast, with NCI-H23 lung, with MCF7 breast and in the test on IGROV1 ovarian was > 100 µM in each case. Further, the TGI with HS 578T breast and with UACC-257 melanoma was > 100 µM in each case.

As to `CCOC(=O)C1CCCCc2sc(N)c(C#N)c21` (stereo unspecified), the TGI in the test on M14 melanoma, in the test on OVCAR-5 ovarian, with MDA-MB-231 breast, in the test with NCI-H23 lung, in the test on MCF7 breast and with IGROV1 ovarian was > 100 µM in each case. For the same compound, the TGI with HS 578T breast, with A498 renal and in the test on UACC-257 melanoma was > 100 µM throughout.

On to `Nc1ncc(/C=N/O)c(NCC2(CO)CC(CCc3ccccc3)C2)n1` (stereo unspecified), for which the TGI was 50.2 µM in the test on CCRF-CEM leukemia; 44.1 µM in the test on OVCAR-5 ovarian; 21.8 µM in the test on MDA-MB-231 breast; 22.2 µM in the test on MCF7 breast; 31.2 µM in the test with IGROV1 ovarian; > 100 µM with HS 578T breast. For the same compound, the TGI in the test with A498 renal came to 29.1 µM; in the test on UACC-257 melanoma, 24.4 µM.

For the compound `[N-]=[N+]=C(C(=O)C(=[N+]=[N-])C(=O)c1ccccc1)C(=O)c1ccccc1`, the TGI with M14 melanoma, in the test on OVCAR-5 ovarian, with MDA-MB-231 breast, in the test on NCI-H23 lung, with MCF7 breast and in the test with IGROV1 ovarian was > 100 µM in each case. The TGI with HS 578T breast and with UACC-257 melanoma was > 100 µM each time.

Take `COC(=O)c1c(OC)cc2cc3c(c(O)c2c1C)C(=O)C1(O)C(=O)C=C(OC)C(OC(=O)CC(C)N)=C1C3=O` (stereo unspecified): the TGI is 49.5 µM with CCRF-CEM leukemia; > 100 µM in the test on M14 melanoma; > 100 µM with OVCAR-5 ovarian; 43.4 µM with MDA-MB-231 breast; > 100 µM in the test on NCI-H23 lung; 67.3 µM in the test on MCF7 breast. For the same compound, the TGI was 69.1 µM in the test on IGROV1 ovarian, 96.6 µM in the test with HS 578T breast and > 100 µM with UACC-257 melanoma.

Turning to `CC(C)(C)c1ccc(-c2nnc(-c3cc(C#N)cc(-c4nnc(-c5ccc(C(C)(C)C)cc5)o4)c3)o2)cc1`, the TGI in the test on CCRF-CEM leukemia, with M14 melanoma, with OVCAR-5 ovarian, in the test with MDA-MB-231 breast, in the test on NCI-H23 lung and in the test with IGROV1 ovarian was > 100 µM throughout. Further, the TGI with HS 578T breast, in the test on A498 renal and in the test with UACC-257 melanoma was > 100 µM each time.

Consider `CC1(C)CCC2(C(=O)OC3OC(CO)C(O)C(O)C3O)CCC3(CO)C(=CCC4C5(C)CC(O)C(O)C(C)(C(=O)OC6OC(CO)C(O)C(O)C6O)C5CCC43C)C2C1` (stereo unspecified), for which the TGI in the test on M14 melanoma, in the test on OVCAR-5 ovarian, with MDA-MB-231 breast, with NCI-H23 lung, in the test on MCF7 breast and in the test with IGROV1 ovarian was > 100 µM throughout. Also, the TGI in the test with HS 578T breast, in the test with A498 renal and in the test with UACC-257 melanoma was > 100 µM in each case.
